# Test system: gastric acid secretion
# Test: Acute gastric fistula rat test: inhibition of gastric acid secretion (Total Acid Output)
# Format: in vivo, Female Sprague-Dawley rats
# Details: ip, compound administered intraperitoneally (footnote *), read-out: ED50 Acute Gastric Fistula (dose required to produce an average of 50% inhibition in Total Acid Output versus controls)
# Experimental: The compounds of the invention of formula (I) are useful for the inhibition of gastric acid secretion as measured by the following test. Female Sprague-Dawley rats are fasted twenty-four hours before testing and are given water ad libidum while being kept in individual cages. On the day of testing, the rats are weighed within a range of ±20 grams.
# Surgery is carried out under light ether anesthesia. As soon as the rat is anesthetized its teeth are removed and a mid-line incision is made on the abdomen about 11/2 inches in length and the stomach and duodenum are exposed. If at this point the stomach is filled with food or fecal material, the rat is discarded. If the condition of the stomach is acceptable, a purse string stitch is placed on the fundic portion of the stomach with a suture, taking care not to pierce any blood vessels in the area. A small nick is then made into the stomach in the center of the purse string, and a cannula, consisting of a small vinyl tube with a flange on one end, is put into the stomach, and the purse string stitch is closed tightly around the flange. The test compound is administered either intraduodonally (i.d.) immediately after surgery or orally (p.o.) one hour prior to surgery at doses generally ranging from about 0.25 to about 160 mg/kg in a volume of 0.5 ml/100 grams rat. Control rats receive the test vehicle, 0.5% aqueous hydroxypropyl methyl cellulose.
# After surgery and, in the case of i.d. administration, after administration of the test compound, the abdominal wall and skin are closed simultaneously with three or four 18 mm wound clips and a collecting tube is placed on the cannula. Each rat is then placed in a box in which a longitudinal slit has been made to allow the cannula to hang freely and to allow the rat to move about unencumbered. After the rat has been allowed to stabilize for thirty minutes, the collection tube on the cannula is discarded and replaced with a clean tube to receive the gastric juice. Collections are made one hour after stabilization.
# The sample of gastric contents collected is drained into a centrifuge tube and centrifuged to pack down the sediment. The volume is read and a 1 ml aliquot of the supernatant is put into a beaker containing 20 ml of distilled water and is titrated to pH 7 using 0.01N sodium hydroxide. Results are determined for Volume, Titratable Acid and Total Acid Output, where Volume equals total ml of gastric juice minus sediment; Titratable Acid (meq/1) equals amount of 0.01N sodium hydroxide needed to titrate the acid to pH 7; and Total Acid Output equals Titratable Acid times Volume. Results are reported as the ED50 dose (mg/kg required to produce an average of 50% inhibition in Total Acid Output versus controls in the animals tested for a particular compound) and as percent inhibition.
row,SMILES,ED50 [mg/kg]
1,"C(=NCCc1c[nH]c2ccccc12)N1CCC(C(c2ccccc2)c2ccccc2)CC1 [Example 2, N-(4-Diphenylmethyl-1-piperidinyl)-methylene-3-1H-indoleethaneamine monohydroiodide]",4.34

# Same assay, conditions: po, one hour prior to surgery, 1 h collection after 30 min stabilization, read-out: ED50 Acute Gastric Fistula (dose required to produce an average of 50% inhibition in Total Acid Output versus controls)
row,SMILES,ED50 [mg/kg]
1,"C(=NCc1ccco1)N1CCC(C(c2ccccc2)c2ccccc2)CC1 [Example 1, 4-(Diphenylmethyl)-1-[(2-furanylmethyl)iminomethyl]piperidine (E)-2-butenedioate (1:1) hydrate (5:2)]",6.91
2,"Cn1cccc1CCN=CN1CCC(C(c2ccccc2)c2ccccc2)CC1.O=C(O)/C=C/C(=O)O [Example 3, 4-Diphenylmethyl-1-[N-[(1-methyl-1H-pyrrol-2-yl)ethyl]-iminomethyl]piperidine (E)-2-butenedioate]",3.61
3,"C(=NCc1cccs1)N1CCC(C(c2ccccc2)c2ccccc2)CC1 [Example 4, 4-(Diphenylmethyl)-1-[(2-thiophenemethyl)imino]methylpiperidine (E)-2-butenedioate (1:1) hydrate (2:1)]",6.59
4,"C(=NCCc1ccccn1)N1CCC(C(c2ccccc2)c2ccccc2)CC1 [Example 5, 4-(Diphenylmethyl-1[[2-(2-pyridinyl)ethyl]iminomethyl]piperidine (E)-2-butenedioate (1:1)]",3.47
5,"C(=NCCc1ccncc1)N1CCC(C(c2ccccc2)c2ccccc2)CC1 [Example 6, 4-Diphenylmethyl-1-[[2-(4-pyridinyl)ethyl]iminomethyl]piperidine 2-naphthalenesulfonate hydrate (4:4:3)]",18.8

# From US4528293A, “Heteroaromatic derivatives of iminomethyl piperidines and use to inhibit gastric acid secretion” (McNeilab, Inc., priority 1983, dated 1985)
